Publication PMC3565020 (ChemMedChem, 2012)
Where “and” joins values, the source holds several entries; their conditions need not be identical. Equal entries are not always repeated. Where two headings read alike, the source gives them in different places.

Experiments:
Sulforhodamine = format: cell-based, human; conditions: human
[1] = tested on: LU-1 human lung carcinoma cell line; assay: Sulforhodamine; format: cell-based; conditions: for Cytotoxicity LU-1 CC50 / CC50: LU-1 human lung carcinoma, SRB; for CC50: read-out: Cytotoxicity LU-1 CC50
[2] = tested on: L. donovani axenic amastigotes; assay: L. donovani axenic amastigote viability, 72 hour Alamar blue assay; format: cell-based, Leishmania donovani
J-774 murine macrophages = assay: Cytotoxicity against murine macrophage cells; conditions: for Cytotoxicity J-774 murine macrophages CC50 / CC50: J-774, Alamar blue; for CC50: read-out: Cytotoxicity J-774 murine macrophages CC50
[3] = tested on: L. donovani promastigotes; assay: L. donovani promastigote viability, 72 hour Alamar blue assay; format: cell-based, Leishmania donovani; conditions: for IC50: read-out: L. donovani Promastigotes IC50
VERO cells = conditions: previous report; cited from earlier work
[4] = Cytotoxicity against murine macrophage cells; conditions: mouse
[5] = 72 hour Alamar blue, pH 5.5, 37°C
[6] = read-out: L. donovani Axenic amastigotes IC50, 72 hour Alamar blue, pH 5.5, 37°C

| SMILES | CC50 (Sulforhodamine; LU-1 lung carcinoma cells) | Cytotoxicity LU-1 CC50 [1] | L. donovani Axenic amastigotes IC50 [2, 5] | Cytotoxicity J-774 murine macrophages CC50 (J-774 murine macrophages) | L. donovani Promastigotes IC50 ([3]; 72 hour Alamar blue, 26°C) | IC50 ([3]; 72 hour Alamar blue, 26°C) | CC50 [1] | IC50 [2, 6] | CC50 (J-774 murine macrophages) | also measured |
| --- | --- | --- | --- | --- | --- | --- | --- | --- | --- | --- |
| C[C@@H]1[C@H](O)[C@@H](C)/C=C/C=C/C=C/C=C/C=C/C=C/C=C/[C@H](O[C@@H]2O[C@H](C)[C@@H](O)[C@H](N)[C@@H]2O)C[C@@H]2O[C@](O)(C[C@@H](O)C[C@@H](O)[C@H](O)CC[C@@H](O)C[C@@H](O)CC(=O)O[C@H]1C)C[C@H](O)[C@H]2C(=O)O [Amphotericin B, reference compound] | > 40 µg/mL |  |  |  |  |  |  |  |  |  |
| COc1ccc2[nH]c3ccc(C=O)cc3c2c1 [Compound 5g] |  | NC^[h] (NC (Noncytotoxic): CC50 > 40 μg/mL) | NA^[g] (NA (Not active): IC50 > 40 μg/mL) | NC (NC (Noncytotoxic): CC50 > 40 μg/mL) | 27 µg/mL | 120 µM |  |  |  | CC values in VERO cells (VERO cells): > 102 µg/mL |
| COc1ccc2[nH]c3cc(O)c(C=O)cc3c2c1 [Compound 6a, lansine] |  |  |  |  |  |  |  |  |  | SI-1 (Selectivity Index-1) = CC50 (LU-1)/IC50 (amastigotes) ([1]; LU-1 vs axenic amastigotes): 2; CC50 (Sulforhodamine): 16.5 µg/mL and 68.4 µM; IC50 ([2]; Leishmania donovani, 72 h, pH 5.5, read-out: L. donovani Axenic amastigotes IC50): 11 µg/mL and 45.6 µM; SI-2 (Selectivity Index-2) = CC50 (J-774)/IC50 (amastigotes) (J-774 murine macrophages; J-774 vs axenic amastigotes): 2; CC50 [4]: 20 µg/mL and 82.9 µM; IC50 ([3]; Leishmania donovani, 72 h): 89.1 µM and 21.5 µg/mL; CC values in VERO cells (VERO cells): > 102 µg/mL |
| O=Cc1cc2c(cc1O)[nH]c1ccccc12 [Compound 6b] |  | 45 µg/mL | 11.0 µg/mL | 21 µg/mL | 35.4 µg/mL | 168 µM | 213 µM | 52 µM | 99.4 µM |  |
| O=Cc1cc2c(cc1O)[nH]c1ccc(C(F)(F)F)cc12 [Compound 6c] |  | 21 µg/mL | 6.0 µg/mL | 9.8 µg/mL | 7.3 µg/mL | 26.2 µM | 75.2 µM | 21.5 µM | 35.1 µM |  |
| O=Cc1cc2c(cc1O)[nH]c1ccc(OC(F)(F)F)cc12 [Compound 6d] |  | 45 µg/mL | 2.1 µg/mL | 8.0 µg/mL | 3.7 µg/mL | 12.6 µM | 152 µM | 7.1 µM | 27.1 µM |  |
| O=Cc1cc2c(cc1O)[nH]c1ccc([N+](=O)[O-])cc12 [Compound 6f] |  | NC (NC (Noncytotoxic): CC50 > 40 μg/mL) | NA (NA (Not active): IC50 > 40 μg/mL) | 20.0 µg/mL | NA (NA (Not active): IC50 > 40 μg/mL) |  |  |  | 78 µM |  |
| O=Cc1cc2c(cc1O)[nH]c1ccc(O)cc12 [Compound 7, 2,6-Dihydroxy-9H-carbazole-3-carbaldehyde] | > 40 µg/mL |  |  |  |  |  |  |  |  | CC50 ([4]; J774 macrophage cells): 32 µg/mL and 141 µM |
| COc1ccc2[nH]c3cc(OC)c(C=O)cc3c2c1 [Compound 8, 2,6-Dimethoxy-9H-carbazole-3-carbaldehyde] | > 40 µg/mL |  |  |  |  |  |  |  |  | CC50 ([4]; J774 macrophage cells): > 40 µg/mL |
| COc1ccc2c(c1)c1cc(C=O)c(OC)cc1n2C [Compound 9, 2,6-dimethoxy-9-methyl-9H-carbazole-3-carbaldehyde] | > 40 µg/mL |  |  |  |  |  |  |  |  | CC50 ([4]; J774 macrophage cells): > 40 µg/mL |
| COc1ccc2[nH]c3cc(O)c(CO)cc3c2c1 [Compound 11] |  | > 60 µg/mL | 10.0 µg/mL | NC (NC (Noncytotoxic): CC50 > 40 μg/mL) | NA (NA (Not active): IC50 > 40 μg/mL) |  | > 247 µM | 41.1 µM |  |  |
| COc1ccc2[nH]c3cc(O)c(C)cc3c2c1 [Compound 13] |  | 30 µg/mL | 11.5 µg/mL | 20 µg/mL | 17.7 µg/mL | 78 µM | 132 µM | 50.6 µM | 88.1 µM |  |
| CCn1c2ccccc2c2cc(C=O)ccc21 [Compound 14] |  | 25 µg/mL | NA (NA (Not active): IC50 > 40 μg/mL) | 21 µg/mL | 38.6 µg/mL | 173 µM | 112 µM |  | 94.1 µM |  |
| Oc1ccc2c(c1)[nH]c1ccccc12 [Compound 15] |  | 40 µg/mL | 10.0 µg/mL | NC (NC (Noncytotoxic): CC50 > 40 μg/mL) | 28.5 µg/mL | 156 µM | 218 µM | 54.6 µM |  |  |
| Cn1c2ccccc2c2ccccc21 [Compound 16] |  | NC (NC (Noncytotoxic): CC50 > 40 μg/mL) | NA (NA (Not active): IC50 > 40 μg/mL) | NC (NC (Noncytotoxic): CC50 > 40 μg/mL) | 37.0 µg/mL | 204 µM |  |  |  |  |
| N=C(N)c1ccc(OCCCCCOc2ccc(C(=N)N)cc2)cc1 [Pentamidine, reference compound] | 0.5 µg/mL and 1.5 µM |  |  |  |  | 3.5 µM |  | 2.9 µM |  |  |
